Series [1] is described as follows: Microsomal stability, mouse liver microsomes. The conditions noted are these: 10 μM, mouse liver microsomes 1 mg/mL, NADPH 2 mM, 37° C. The format is in vitro ADME. Here is the method:
Microsomal stability of HBB and HCB were evaluated in human and mouse liver microsomes. 10 μM of HBB or HCB was tested in a biological matrix comprising of human or mouse liver microsomes (1 mg/mL) (Table 6). NADPH (2mM) was added as a cofactor. Total volume was 200 μL.
HBB or HCB was incubated for 0, 30, or 60 min at 37° C. Incubations were quenched with 2 volumes of acetonitrile followed by centrifugation for 10 min at 16,000 g.

Series [2] concerns SARS-CoV-2. Description: microbe, parasite or virus in culture. The format is cell-based. The settings on record: Severe acute respiratory syndrome coronavirus 2, 293T/ACE2, FIG. 12; for IC50: read-out: antiviral IC50; for IC90: read-out: antiviral IC90.
Series [3] in a line: Cytotoxicity assay in 293T/ACE2 cells. The conditions noted are these: human, HEK293T/17 cells expressing human ACE2.
The next series deals with BT474. Description: Inhibition of mammary carcinoma cell line BT474. The format is cell-based. The conditions noted are these: BT-474; Table 5; BT474, human, ERα+, HER2+. Here is the method: (§1) 3-(4,5-Dimethylthiazol-2-yl)-2,5-diphenyltetrazolium Bromide (MTT) Cell Proliferation Assay. To cells grown in 96-well-tissue culture plate, 20 μl/well of MTT solution (5 mg/ml in PBS) was added. After 1-2 hours incubation at 37° C., the plate was centrifuged. Supernatant was discarded and 100 μl DMSO was added to dissolve water insoluble formazan, and the absorbance was read at 540 nm with a plate reader.

The next series is described as follows: in vitro. The settings on record: African green monkey, Vero E6 cells.
Series [4] has as its system SARS-CoV-2. As to the kind of experiment: SARS-CoV-2 antiviral assay in Vero cells. The settings on record: Severe acute respiratory syndrome coronavirus 2, Vero cells, FIG. 11; for IC50: read-out: antiviral IC50; for IC90: read-out: antiviral IC90. The format is cell-based.
Series [5] in a line: Pharmacokinetics in mice plasma (LC-MS/MS). The format is in vivo. The settings on record: for AUC, subcutaneous vs IV, intraperitoneal or oral: FIGS. 14-15; for HL_Lambda_z: mice plasma; for Cmax / Tmax: mouse, plasma. As to the method:
HBB PK method: HBB in mice plasma was determined with an LC-MS/MS method using d5-HBB as the internal standard.
Sample preparation: HBB in 150 μL mice plasma was extracted by addition of 300 μL acetonitrile spiked with d5-HBB internal standard (0.5 ug/ml). The extraction mixture was centrifuged at 12,000×g for 5 minutes and 150 μL of supernatant was saved for LC-MS/MS analysis.
(§2) LC-MS/MS method: A Quattro Ultima mass spectrometer (Waters, Milford, MA) equipped with an Acquity UPLC (Waters, Milford, MA) and interfaced through an MassLynx software (Waters, Milford, MA) was used. HBB and d5-HBB were resolved at base line with a Zorbax Eclipse XDG-C18 column (4.6×50 mm, 1.8 micron) (Agilent, Santa Clara, CA). Mobile phases were A: water (0.1% formic acid) and B: acetonitrile (0.1% formic acid). The flow rate was 250 μL/min. Elution gradient was as follow: 0-5 min, 90% A and 10% B; 5 min, 10% A and 90% B; 5.25 min, 90% A and 10% B; 10 min, 90% A and 10% B. At positive mode, ion transition for HBB 276.01 mz to 91.02 mz and d5-HBB 281.09 to 96.06 were monitored.
Quantification: Quantitation was carried out by the MassLynx software based on an HBB standard curve (1.5-1500 ng/ml). Per FDA bioanalytical method validation guideline, standards and plasma samples were bracketed with QC samples to ensure accuracy and precision of the measurement.
HCB PK method: HCB in mouse plasma was determined with an LC-MS/MS method using d5-HBB as the internal standard.
Sample preparation: HCB in 150 μL mice plasma was extracted by addition of 300 μL acetonitrile spiked with d5-HBB internal standard (0.5 ug/ml). The extraction mixture was centrifuged at 12,000×g for 5 minutes and 150 μL of supernatant was saved for LC-MS/MS analysis.
as §2, with “used. Neo biguanide” for “used. HBB”, “Eclipse XDB-C18 Rapid Resolution HT (P.M. 927975-902)” for “Eclipse XDG-C18”, “for” for “for HBB 276.01 mz to 91.02 mz and”, “96.06 and corresponding neo biguanide parent daughter ion transition” for “96.06”
Quantification: Quantitation was carried out by the MassLynx software based on an HCB standard curve (1.5-1500 ng/ml). Per FDA bioanalytical method validation guideline, standards and plasma samples were bracketed with QC samples to ensure accuracy and precision of the measurement.

A further series concerns Vero cells. Description: Cytotoxicity assay in Vero cells.
For another series, the system named is mm001. As to the kind of experiment: Inhibition of mammary carcinoma cell line mm001. The conditions noted are these: Mus musculus, read-out: IC50 (uM), mm001. The format is cell-based, mouse (C57BL/6). Here is the method: as §1
Another series deals with LR/FR/PR MCF7A1C cells. Description: Crystal violet cell proliferation assay, LR,FR,PR-MCF7AC1. The format is cell-based. The settings on record: Homo sapiens, read-out: IC50, LR/FR/PR MCF7A1C cells.
In another series the test system is MCF10A cells. As to the kind of experiment: Crystal violet cell proliferation assay, MCF10A. In kind it is cell-based. The settings on record: Homo sapiens, MCF-10A, 72 hours. Here is the method: Cell proliferation assay: The cells mentioned in this study were seeded in 96 wells-plates (2000-4000 cells/well) and treated 24 hours later with DMSO (vehicle control), HCB or HBB drugs at the indicated concentrations. 72 hours later, the cells were fixed in situ with 25% (v/v) glutaraldehyde, followed by staining with 0.52% crystal violet (CV) in 25% methanol (Fisher Chemical). The CV stained plates were solubilized in 100 mM sodium citrate in 50% ethanol solution and absorbance of the stain measured at 550 nm using a plate reader. Each data point represents mean±SD, obtained from six wells per treatment performed in biological triplicates. All reagents were from Sigma-Aldrich unless otherwise stated.

Where two headings read alike, the source gives them in different places.

Protocol for LR/FR/PR MCF7A1C cells: Cell proliferation assay: The cells mentioned in this study were seeded in 96 wells-plates (2000-4000 cells/well) and treated 24 hours later with DMSO (vehicle control), HCB or HBB drugs at the indicated concentrations. […] The CV stained plates were solubilized in 100 mM sodium citrate in 50% ethanol solution and absorbance of the stain measured at 550 nm using a plate reader. Each data point represents mean±SD, obtained from six wells per treatment performed in biological triplicates.

As usually defined, the IC90 is the point of the concentration-response curve where the effect stands at 90%. The CC50 is the concentration giving 50% cytotoxicity. Read a high CC50 as lower toxicity to the cells. The Cmax is the maximum level reached in the sampled fluid or tissue. A word on the Tmax: it is the time from dosing to the highest level. Consider `CCCCCCNC(=N)NC(=N)NCc1ccccc1` [HBB, N1-hexyl-N5-benzyl-biguanide], for which the “parent metabolite peak area after 60 min” value in series [1] came out at 8.95%. Further, the IC50 was 0.82 µM in the series with SARS-CoV-2 [2]; 23.2 µM with BT474; more than 20 µM with SARS-CoV-2 [4]; 26.8 µM with mm001; 4.9 µM with LR/FR/PR MCF7A1C cells (72 h); 5.2 µM in the series on MCF10A cells. In addition, the IC90 in the series on SARS-CoV-2 [2] was 11.3 µM; with SARS-CoV-2 [4], more than 20 µM. This compound came in with a CC50 in series [3] of 26 µM. The CC50 at 48 h in the series “in vitro” was more than 20 µM. In [5], the “AUC, subcutaneous vs IV, intraperitoneal or oral” value is “better AUC”. The results for the “Cl_F_obs” value in series [5] (IP) and in series [5] (SC) were 88.25 mL/min/kg and 32.89 mL/min/kg, respectively. For the same compound, the “Vz_F_obs” value in [5] (IP) was 62.842 L/kg; in series [5] (SC), 23.131 L/kg. Further, the “HL_Lambda_z” value in series [5] (IP) was 8.23 h; in [5] (IV), 7.51 h; in series [5] (SC), 8.13 h. In addition, the “Cl_obs” value in [5] (IV) is recorded as 50.65 mL/min/kg. In addition, the “Vz_obs” value in series [5] (IV) was 32.933 L/kg. In addition, the “fold greater AUC, subcutaneous than ip” value in series [5] (SC vs ip) amounted to 2.6 fold. The Cmax in [5] (ip) was 1840 ng/mL; in series [5] (iv), 20100 ng/mL; in series [5] (sc) it was 1860 ng/mL. Besides, the figures for the Tmax in series [5] (ip), in series [5] (iv) and in series [5] (sc) were 1 min, 1 min and 5 min, respectively. Also, the CC10 in the series on Vero cells was 0.091 µM.

For the compound `CCCCCCNC(=N)NC(=N)NCC12C3C4C5C3C1C5C42` (stereo not drawn) [HCB, Hexyl Cubanomethyl Biguanide], the “parent metabolite peak area after 60 min” value in series [1] is on record as 18.63%. Further, the IC50 with SARS-CoV-2 [2] came out at 0.7 µM; in the series on BT474, 10.9 µM; in the series on SARS-CoV-2 [4], 15.6 µM; in the series on mm001 (Table 5, mm001, C57BL/6, Basal) it was 12.1 µM; in the series with LR/FR/PR MCF7A1C cells (letrozole-, fulvestrant- and palbociclib-resistant, 72 hours, crystal violet), 1.7 µM; in the series with MCF10A cells, 2.5 µM. For the same compound, the figures for the IC90 in the series on SARS-CoV-2 [2] and with SARS-CoV-2 [4] were 4.8 µM and 19.6 µM, respectively. This compound also showed a CC50 in series [3] of 7.2 µM. Further, half-maximal cytotoxicity in the series “in vitro” (CC50 at 48 h) was put at 13.3 µM. Also, the “AUC, subcutaneous vs IV, intraperitoneal or oral” value in [5] is on record as “better AUC”. The compound also had a CC10 in the series with Vero cells of 0.201 µM.

For the origin of these results see patent US20240067603A1, “CUBANYL BIGUANIDE COMPOUNDS” (REGENTS OF THE UNIVERSITY OF MINNESOTA, priority 2020, published 2024).
